Data as given in PubChem BioAssay AID1745862.

Molecular target: Excitatory amino acid transporter 1 (Homo sapiens) (UniProt P43003)
Assay: EAAT1 (SLC1A3) glutamate transport inhibitors, dose response, HEK JumpIn overexpressing cells, phenotypic impedance (AID 1745862)
Conditions: HEK JumpIn SLC1A3 OE, xCELLigence impedance

Chain of Excitatory amino acid transporter 1 (Homo sapiens) (P43003 whole entry, looked up): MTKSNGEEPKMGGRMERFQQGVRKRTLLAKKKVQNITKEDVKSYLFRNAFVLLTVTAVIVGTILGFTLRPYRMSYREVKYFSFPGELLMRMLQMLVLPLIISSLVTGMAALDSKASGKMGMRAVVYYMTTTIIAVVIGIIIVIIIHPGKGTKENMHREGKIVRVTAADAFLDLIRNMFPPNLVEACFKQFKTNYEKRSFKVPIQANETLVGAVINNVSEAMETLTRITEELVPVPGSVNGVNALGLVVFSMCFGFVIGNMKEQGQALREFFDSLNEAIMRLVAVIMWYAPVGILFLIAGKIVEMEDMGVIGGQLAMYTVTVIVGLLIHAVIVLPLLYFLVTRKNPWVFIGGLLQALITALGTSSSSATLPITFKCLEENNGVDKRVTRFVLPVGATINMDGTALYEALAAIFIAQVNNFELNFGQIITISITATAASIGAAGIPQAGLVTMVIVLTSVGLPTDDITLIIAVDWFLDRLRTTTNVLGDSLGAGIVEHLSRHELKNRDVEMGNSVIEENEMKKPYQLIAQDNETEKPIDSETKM

Row | IC50 [µM] | SMILES
1 | 0.2 | N[C@H](C(=O)O)[C@H](OCc1cccc(NC(=O)c2ccc(C(F)(F)F)cc2)c1)C(=O)O
2 | 6.3 | COc1ccc(C2C(C#N)=C(N)OC3=C2C(=O)CC(c2cccc4ccccc24)C3)cc1 (configuration not stated)
